Source: publication PMC12974487, “Inhibition of FicD-mediated AMPylation and deAMPylation by isoprenoid diphosphates” (Proceedings of the National Academy of Sciences of the …, 2026)
Positions count from the first letter of the chain named.

Legend:
FicD^WT = target: T1, FicD^WT (Homo sapiens, UniProt Q9BVA6); assay: MIDAS equilibrium dialysis/mass spectrometry metabolite screen, FicD^WT; format: binding; conditions: cutoff Q < 0.05 and |Log2 corrected fold change| > 2, metabolites 5 µM
T1 construct: soluble ER luminal domain (residues 105 to 458) of wild-type human FicD; 6xHis-Sumo (N, cleaved yes); made in house; host or cells: Rosetta(DE3) E. coli
T1 sequence (Q9BVA6 105-458): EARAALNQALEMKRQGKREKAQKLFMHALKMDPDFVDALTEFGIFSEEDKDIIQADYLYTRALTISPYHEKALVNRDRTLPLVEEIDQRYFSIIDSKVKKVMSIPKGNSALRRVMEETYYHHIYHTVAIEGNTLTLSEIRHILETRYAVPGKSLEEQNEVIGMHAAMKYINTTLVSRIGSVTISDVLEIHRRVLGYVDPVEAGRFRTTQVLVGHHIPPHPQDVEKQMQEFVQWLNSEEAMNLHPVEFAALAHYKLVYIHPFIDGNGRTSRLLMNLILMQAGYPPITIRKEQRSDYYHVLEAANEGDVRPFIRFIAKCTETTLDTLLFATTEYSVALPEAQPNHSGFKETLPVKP

FicD^H363A = target: T2, FicD^H363A (Homo sapiens, UniProt Q9BVA6, H363A); assay: MIDAS metabolite screen, FicD^H363A; format: binding; conditions: cutoff Q < 0.05 and |Log2 corrected fold change| > 2, metabolites 5 µM
T2 construct: soluble ER luminal domain (residues 105 to 458) of wild-type human FicD and three mutants; 6xHis-Sumo (N, cleaved yes); made in house; host or cells: Rosetta(DE3) E. coli
T2 sequence (Q9BVA6 105-458 H363A): T1 sequence (Q9BVA6 105-458) with H259A
Text: To identify small-molecule metabolite interactions with FicD, we applied an unbiased high-throughput screening approach known as MIDAS ([44]). Given the high concentrations of protein required for MIDAS screening, we purified the soluble ER luminal domain (residues 105 to 458) of wild-type human FicD and three mutants FicD^E234G, FicD^L258D, and FicD^H363A for screening (Fig. 1A). These mutants were selected based on their well-established biochemical features ([23], [24], [31]). All three are predicted to enhance detection of protein–metabolite interactions (PMIs) relative to FicD^WT through increased affinity for nucleotide substrates (FicD^E234G), improved solubility (FicD^L258D), and loss of catalytic turnover (FicD^H363A) (Fig. 1A). To decrease the potential for nonspecific small-molecule binding, we ensured the purity of our FicD proteins (SI Appendix, Fig. S1 A and B). As reported by other investigators ([24], [31]), we observe an increase in elution volume of the FicD^L258D mutant, consistent with its monomerization (SI Appendix, Fig. S1C).
Out of the 602 naturally occurring human metabolites in the MIDAS library, we applied a significance cutoff (q value < 0.05) to identify 12 PMIs with a Log2 (corrected fold change) of >2 and two PMIs with a Log2 (corrected fold change) <-2 in the FicD^WT screen (Fig. 1B and SI Appendix, Table S2). Hits were additionally triaged based on detection of multiple adducts of the metabolite in a single dataset (FPP and […] in Fig. 1B) and identification of the same metabolites across three or more of the FicD construct screens (Fig. 1C). Three chemical classes passed this initial triage: adenosine nucleotides, isoprenoid diphosphates, and thyroid hormone intermediates (Fig. 1 B and C and SI Appendix, Tables S2–S5).
22°C. Induced cultures were then harvested by centrifugation at 8000G for 15 minutes at 4°C and […]
Bacterial pellets were resuspended in 30-50mL of 50mM Tris pH 7.4/150mM NaCl/10% glycerol with one Roche cOmplete EDTA-Free Protease inhibitor cocktail tablet (cat no. COEDTAF-RO).
Triton-X100 to a final concentration of 0.2%, Chicken-egg lysozyme to a final concentration of 0.4ug/mL, and 2-5uL of Millipore Benzonase Nuclease (cat no. 70664) were added to bacterial suspension prior to sonication at 40-50% amplitude for 1-3 minutes in pulses of 5 seconds on and 30 seconds off on ice with a Sonics VCX 750 Ultrasonicator. Bacterial lysate was then clarified by centrifugation at 30,000 x g for 30 minutes at 4°C.
Clarified lysate was rotated with Qiagen NiNTA agarose beads (cat no. 30210) for 1-2 hours at 4°C. […]

Compound | MIDAS protein-metabolite interaction (enrichment/depletion) (FicD^WT) | MIDAS protein-metabolite interaction (enrichment/depletion) (FicD^H363A)
Nc1ncnc2c1ncn2[C@@H]1O[C@H](COP(=O)(O)OP(=O)(O)O)[C@@H](O)[C@H]1O [ADP] | significantly enriched | significantly enriched
CC(C)=CCC/C(C)=C/CC/C(C)=C/COP(=O)(O)OP(=O)(O)O [FPP, farnesyl-pyrophosphate] | significantly enriched | significantly enriched
CC(C)=CCC/C(C)=C/COP(=O)(O)OP(=O)(O)O [GPP, geranyl-pyrophosphate] | significantly enriched | significantly enriched
